Measured values from patent US6251854A, “N-methyl-d-aspartate receptor channel blockers and method for identifying such” (priority 1999, dated 2001).
“Also recorded” adds a separate entry of the source. Structures can show the parent of a compound that is named as a salt. Where two headings read alike, the source gives them in different places. Non-standard residues stand in square brackets, D forms with d. Residues, ends and D or L forms follow the SMILES beside them.

Experiments:
[1] = molecular target: T1, human NR1-NR2A NMDA receptor subunits (Homo sapiens, UniProt Q05586+Q12879); experiment: amphibian oocyte current blockade assay (agonist-evoked currents); type: cell-based; conditions: for potency rank as NMDA blocker (FIG. 1): unacetylated peptides; for selectivity for NMDA receptor channels: versus non-NMDA glutamate receptors
T1 construct: expressed in transfected cells; host or cells: Xenopus laevis oocytes
T1 sequence (Q12879 23-1464, other chains not shown): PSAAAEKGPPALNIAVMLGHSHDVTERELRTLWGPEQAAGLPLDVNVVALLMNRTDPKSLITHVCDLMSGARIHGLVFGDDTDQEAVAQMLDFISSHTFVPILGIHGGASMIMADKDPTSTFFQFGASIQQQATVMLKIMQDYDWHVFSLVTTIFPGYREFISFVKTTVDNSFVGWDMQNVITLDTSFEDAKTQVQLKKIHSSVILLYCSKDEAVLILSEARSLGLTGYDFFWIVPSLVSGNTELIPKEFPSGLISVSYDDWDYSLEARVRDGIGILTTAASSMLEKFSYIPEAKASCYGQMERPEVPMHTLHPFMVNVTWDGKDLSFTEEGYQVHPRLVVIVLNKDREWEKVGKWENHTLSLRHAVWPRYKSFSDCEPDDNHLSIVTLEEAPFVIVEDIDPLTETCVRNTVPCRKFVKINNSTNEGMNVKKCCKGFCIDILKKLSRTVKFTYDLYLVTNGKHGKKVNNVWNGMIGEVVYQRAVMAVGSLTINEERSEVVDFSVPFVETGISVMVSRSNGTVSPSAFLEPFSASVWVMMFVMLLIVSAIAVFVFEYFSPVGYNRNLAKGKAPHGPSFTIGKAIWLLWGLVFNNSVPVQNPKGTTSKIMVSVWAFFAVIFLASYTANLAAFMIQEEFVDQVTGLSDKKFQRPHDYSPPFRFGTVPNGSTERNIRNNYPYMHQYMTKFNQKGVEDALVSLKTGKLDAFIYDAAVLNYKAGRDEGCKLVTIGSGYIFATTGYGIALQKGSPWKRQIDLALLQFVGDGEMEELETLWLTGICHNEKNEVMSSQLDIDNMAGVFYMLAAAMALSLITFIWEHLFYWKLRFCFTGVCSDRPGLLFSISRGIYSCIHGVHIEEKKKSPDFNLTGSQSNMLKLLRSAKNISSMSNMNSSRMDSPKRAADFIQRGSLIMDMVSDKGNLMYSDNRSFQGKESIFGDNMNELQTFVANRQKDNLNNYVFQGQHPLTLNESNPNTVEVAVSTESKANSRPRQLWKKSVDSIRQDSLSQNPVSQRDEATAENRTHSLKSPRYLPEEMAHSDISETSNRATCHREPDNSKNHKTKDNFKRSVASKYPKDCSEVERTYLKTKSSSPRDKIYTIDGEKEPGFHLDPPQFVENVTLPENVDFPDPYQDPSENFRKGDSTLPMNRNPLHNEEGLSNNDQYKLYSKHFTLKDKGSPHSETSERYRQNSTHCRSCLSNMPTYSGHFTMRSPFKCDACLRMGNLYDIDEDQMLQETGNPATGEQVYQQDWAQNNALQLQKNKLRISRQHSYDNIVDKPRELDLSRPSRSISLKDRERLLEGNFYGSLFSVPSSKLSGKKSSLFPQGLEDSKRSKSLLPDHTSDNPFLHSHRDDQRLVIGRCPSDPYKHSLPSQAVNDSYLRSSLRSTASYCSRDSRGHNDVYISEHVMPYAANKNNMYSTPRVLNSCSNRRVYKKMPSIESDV
Experimental: Briefly, in the amphibian oocyte current blockade assay, human NMDA receptors are expressed in the oocytes. The receptors are stimulated in the cells by NMDA agonists. Agonist-induced current is the control against which current blockade levels achieved by incubating the oocytes with candidate NMDA blockers are measured.
(A) NMDA specific receptor channel blocking peptides ("NMDA blockers") were identified by screening synthetic combinatorial libraries (SCL) (see e.g., the library and peptide synthesis methods described in Ostresh, et al., Meth Enzymol (1996) 267:220-34, incorporated herein by reference) and assaying for blockade of agonist-evoked currents by the human NR1-NR2A NMDA receptor subunits expressed in amphibian (Xenopus laevis) oocytes (see, for example, the assay method described in Ferrer-Monteil and Montal, METHODS:A Companion to Methods in Enzymology (1994) 6:60-68, incorporated herein by reference).
(D) The compounds prepared in part (B) above were examined for activity against human brain NMDA receptors (composed of NR1 and NR2A subunits) expressed in oocytes. Ionic currents were activated by 200 μM L-glutamate (L-GIu) 20 μM glycine (Gly), at a holding potential Vh =[…]. Ba^2+ /flufenamic Ringer solution was supplemented with agonist and compounds of the invention, and blockade activity determined for each compound.
An example of how the assay method is performed follows, with reference to FIG. 5.

[2] = system: cultured hippocampal neurons; experiment: hippocampal neuronal cell death model (NMDA excitotoxicity); type: cell-based, mammalian; conditions: neurons exposed to 200 μM NMDA for 20 minutes (FIG. 3)
Description: In addition to approved clinical trials of the inventive compounds in humans, their efficacy can be confirmed in various known animal models for cerebral impairments associated with NMDA receptor pathology, such as the rat ischemia model (e.g., Seif, et al., Eur J Pharmacol (1990) 185:19-24 and Block and Schwara, Neurosci Lett (1996) 208:41-44). Useful in vitro models for testing neuroprotective drug effects in cerebral neuronal cells are also known and include the chick embryo hypoxia model (e.g., Krieglstein, et al., J Pharmacol Meth (1988) 20:39-46) and the mammalian hippocampal neuronal system in which the inventive compounds were tested (e.g., Schinder, et al., supra). These references are each incorporated by reference to illustrate knowledge in the art concerning models of cerebral dysfunction. Those of ordinary skill in the art will be familiar with, or can readily ascertain, other suitable models for use in testing the compounds of the invention.
Testing of the NMDA blockers of the invention in a hippocampal cell model for neurodysfunction (using the method described in Schinder, et al., J Neurosci (1996) 16:6125-33, incorporated herein by reference) yielded surprising results. Specifically, the NMDA blockers of the invention exert a substantial protective effect against cell death induced by exposure of cultured hippocampal neurons to glutamate agonists in the described model of neuronal cell death due to NMDA receptor dysfunction. In this model, neurons exposed to 200 μM NMDA for 20 minutes display extensive death that can be prevented by open channel blockers such as MK-801 or memantine (FIG. 3). This in vitro paradigm of excitotoxicity provides an assay of neuroprotection (see e.g., Schinder et al., supra and Deshpande, et al., Arch Toxicol, 69:384-390).

[3] = molecular target: T2, AMPA-receptor subunit GluR1 (Homo sapiens, UniProt P42261); experiment: current blockade at non-NMDA glutamate receptor channels in amphibian oocytes; type: cell-based
T2 construct: expressed in transfected cells; host or cells: amphibian oocytes
T2 sequence (P42261 19-906): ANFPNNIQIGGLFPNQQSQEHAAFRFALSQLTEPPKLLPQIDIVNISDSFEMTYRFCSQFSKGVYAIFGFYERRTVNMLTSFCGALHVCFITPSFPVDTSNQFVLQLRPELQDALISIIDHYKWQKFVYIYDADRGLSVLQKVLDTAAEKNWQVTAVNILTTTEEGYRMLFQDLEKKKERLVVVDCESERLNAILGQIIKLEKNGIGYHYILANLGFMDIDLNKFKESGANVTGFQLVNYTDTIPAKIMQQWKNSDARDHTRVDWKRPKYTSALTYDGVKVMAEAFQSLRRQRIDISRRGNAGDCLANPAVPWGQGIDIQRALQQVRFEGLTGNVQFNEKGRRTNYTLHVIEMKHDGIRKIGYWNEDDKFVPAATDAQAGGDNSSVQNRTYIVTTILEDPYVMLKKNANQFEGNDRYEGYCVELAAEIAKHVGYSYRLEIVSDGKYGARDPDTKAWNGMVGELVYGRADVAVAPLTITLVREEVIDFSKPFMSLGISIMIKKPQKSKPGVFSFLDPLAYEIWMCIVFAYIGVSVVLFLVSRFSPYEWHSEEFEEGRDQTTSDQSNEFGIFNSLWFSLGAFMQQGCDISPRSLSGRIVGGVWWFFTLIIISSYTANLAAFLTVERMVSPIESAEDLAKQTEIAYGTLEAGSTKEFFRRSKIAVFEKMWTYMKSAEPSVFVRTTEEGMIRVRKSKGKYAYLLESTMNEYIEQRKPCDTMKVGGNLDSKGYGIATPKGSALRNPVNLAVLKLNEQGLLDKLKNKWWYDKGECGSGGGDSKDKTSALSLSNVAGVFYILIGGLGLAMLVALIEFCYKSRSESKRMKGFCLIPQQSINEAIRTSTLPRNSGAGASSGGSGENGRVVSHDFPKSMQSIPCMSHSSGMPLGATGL
Description: FIG. 1 is a bar graph which depicts the extent of current blockade achieved by various peptides of the invention acting on NMDA receptors ("NMDAR", solid bars) and glutamate receptors of the AMPA-receptor subunit GluR1 type ("GluR1", shaded bars) in amphibian oocytes. Each tested peptide is identified by sequence and test number along the bottom axis of the graph. Current blockade is expressed as a function of the extent of current reduction as compared to current produced in control amphibian oocytes.
(B) To examine the specificity of the blockade activity, the activity of the peptides on glutamate receptor channels of the non-NMDA subtype, specifically, the AMPA-receptor subunit GluR1, was tested.

[4] = Table 2, bicyclic compounds, 200 μM L-glutamate 20 μM glycine, Vh = −80 mV, blocked response 1-(Icmpd/Iagonist), read-out: IC50 (μM) Inhibitory Concentrations

Q: How did the IC50 [1, 4] turn out when “2H-3-(3-guanidinopropyl)-7-(3-guanidinopropyl)-8-(3-methylbutyl)diazolidine[1,2-b]dihydroimidazole” was run?
A: 4.2 µM

Q: With “2H-3-(3-guanidinopropyl)-7-(but-2-yl)-8-(3-methyl-butyl)diazolidine[1,2-b]dihydroimidazole” as the compound, how does the IC50 [1, 4] read?
A: 11.8 µM

Q: “2H-3-(4-fluorobenzyl)-7-(3-guanidinopropyl)-8-(3-methylbutyl)diazolidine[1,2-b]dihydroimidazole” was tested. Which IC50 [1, 4] did it give?
A: 6.1 µM

Q: “2H-3-(4-fluorobenzyl)-7-(but-2-yl)-8-(3-methyl-butyl)diazolidine[1,2-b]dihydroimidazole” was tested. Which IC50 [1, 4] did it give?
A: 1.2 µM

Q: “2H-3-(4-fluorobenzyl)-7-(t-butyl)-8-(3-methyl-butyl)diazolidine[1,2-b]dihydroimidazole” was tested. Which IC50 [1, 4] did it give?
A: 2.2 µM

Q: Which “protection of neurons from excitotoxic cell death” value (“protection of neurons” below) [2] does the source give for `C[C@]12N[C@H](Cc3ccccc31)c1ccccc12` [MK-801, reference compound] here?
A: prevented

Q: Which IC50 [1] does the source give for `N=C(N)NCCC[C@H](NC(=O)[C@H](CCCNC(=N)N)NC(=O)[C@H](CCCNC(=N)N)NC(=O)[C@H](CCCNC(=N)N)NC(=O)[C@H](CCCNC(=N)N)NC(=O)[C@@H](N)CCCNC(=N)N)C(N)=O` [RRRRRR] here?
A: 0.5 ± 0.1 µM

Q: What about the “protection of neurons” value [2] of the same compound?
A: protected neurons from excitotoxic cell death

Q: How did the “protection of neurons” value [2] turn out when `CC12CC3CC(C)(C1)CC(N)(C3)C2` [memantine, 1-amino-3,5-dimethyladmantane hydrochloride, reference compound] was run?
A: prevented

Q: `CC(C)C[C@@H](NC(=O)[C@@H](Cc1ccc(O)cc1)NC(=O)[C@H](N)CCCNC(=N)N)C(=O)N[C@H](Cc1ccccc1)C(=O)N[C@H](CCCNC(=N)N)C(=O)N[C@H](CCCNC(=N)N)C(N)=O` [rylfrr] (H-[dR][dY][dL][dF][dR][dR]-NH2) was tested. Which IC50 [1] did it give?
A: 27 ± 4 µM

Q: What does the source list for “H-RRRRWW-NH2 (C-terminus assumed) [RRRRWW]”?
A: IC50 [1]: 0.1 µM; current blockade at a steady concentration compared with the same concentration of memantine (FIG. 2) [1]: comparable; potency rank as NMDA blocker (FIG. 1) [1]: most potent; selectivity for NMDA receptor channels [1]: selective for NMDA receptor channels; blockade effect on non-NMDA glutamate receptors [3]: no blockade effect; protection of neurons from excitotoxic cell death [2]: prevented neuronal cell death

Q: RRCRWW was tested. Which “selectivity for NMDA receptor channels” value [1] did it give?
A: selective for NMDA receptor channels

Q: What about the “blockade effect on non-NMDA glutamate receptors” value [3] of the same compound?
A: no blockade effect

Q: And the “protection of neurons” value [2]?
A: prevented neuronal cell death

Q: With RRRCRW as the compound, how does the “potency rank as NMDA blocker (FIG. 1)” value [1] read?
A: most potent

Q: With RRRCWW as the compound, how does the “sensitivity of AMPA receptor channels to the peptides (FIG. 1)” value ([3]; set result: weakly sensitive) read?
A: excepting

Q: Which results are given for RRRRRW?
A: current blockade at a steady concentration compared with the same concentration of memantine (FIG. 2) [1]: comparable; effect on evoked inward currents upon perfusion (FIG. 5) ([1]; 200 μM L-glutamate/20 μM glycine): sharply attenuated; increase of blockade efficacy by a C-terminal tryptophan (Ki RRRRRR vs RRRRRW) ([1]; compared with RRRRRR (#111)): 1000 fold; potency rank as NMDA blocker (FIG. 1) [1]: most potent; selectivity for NMDA receptor channels [1]: selective for NMDA receptor channels; blockade effect on non-NMDA glutamate receptors [3]: no blockade effect; protection of neurons from excitotoxic cell death [2]: prevented neuronal cell death; also recorded: protected neurons from excitotoxic cell death

Q: For RRRRW, which “protection of neurons” value [2] is on record?
A: protected neurons from excitotoxic cell death
